Reference: patent US6664284B2, “Stabilized carvedilol injection solution” (Roche Diagnostics GmbH, priority 1998, dated 2003)
Converted amounts (≈) assume the structure as drawn. Each block holds one molecule with its values, some of them ahead of it.

Tests used:
physchem [1] = conditions: aqueous with cosolvent or surfactant or cyclodextrin
lipid peroxidation = conditions: reported by Yue et al.; cited from earlier work
physchem [2] = conditions: pH 6.1, water
[3] = Solubility of loop diuretics in the acidic to maximum neutral aqueous formulations; conditions: acidic to neutral aqueous carvedilol injection solutions, aqueous with cosolvent or surfactant or cyclodextrin

solubility (physchem [1]): 1000 to 2000 µg/mL (≈ 2870 to 5740 µM)
SMILES: Cc1cccc(Nc2ccncc2S(=O)(=O)NC(=O)NC(C)C)c1 [Torasemide]

solubility (physchem [2]): ~2 µg/mL (≈ 4.92 µM) | solubility of carvedilol in water (pH 6.1): about 0.2 mg/100 ml | pH value resulting from saturated solution in water (water): 6.1
SMILES: COc1ccccc1OCCNCC(O)COc1cccc2[nH]c3ccccc3c12 (stereo not drawn) [carvedilol, 1-(9H-carbazol-4-yloxy)-3-[[2-(2-methoxyphenoxy)ethyl]amino]-2-propanol]
antioxidative activity, lipid peroxidation (lipid peroxidation): inhibit lipid peroxidation

solubility [3]: 1000 to 3000 µg/mL (≈ 2700 to 8090 µM)
SMILES: NS(=O)(=O)c1cc(-c2nnn[nH]2)c(NCc2cccs2)cc1Cl [azosemide]
